Experimental data reported in patent US20220411378A1, “SMALL MOLECULES POLYMERASE INHIBITORS” (GEORGIA STATE UNIVERSITY RESEARCH FOUNDATION, INC., priority 2019, published 2022).
pEC50, pKd: −log10 of the molar value. Entries after “also recorded” stand apart in the source; their conditions may differ. Where two headings read alike, the source gives them in different places.

Experiments:
HPIV3-JS RdRP = format: cell-based
[1] = Stability in human liver microsomes; format: in vitro ADME
Experimental: (§1) To determine stability in plasma, GHP-88309 was incubated in triplicate in pooled human or CD-1 mouse plasma (BioIVT) in glass tubes in a 37° C. shaker-incubator (150 rpm). Procaine and benfluorex served as positive controls and were analyzed in parallel. […] To determine stability in liver microsomes, GHP-88309 was incubated in triplicate in glass tubes in 50 mM Tris-HCl (pH 7.5) buffer with 8 mM MgCl2, 25 μg/mL alamethicin, Phase I and Phase II cofactors (NADPH regenerating system (NRS) and 2 mM UDPGA, respectively) and 0.5 mg total protein pooled mixed gender human liver microsomes (BioIVT) or pooled CD-1 mouse liver microsomes (Xenotech) in a 37° C. shaker incubator (150 rpm). Verapamil served as Phase I positive control, negative controls lacked cofactors and contained 2% (w/v) NaHCO3 in water instead of NRS. Aliquots were taken after 0, 15, […], 30, 60 and 120 minutes and processed as outlined above.

RSV-derived minigenome = RSV-derived minigenome (Human respiratory syncytial virus A, UniProt P28887); format: cell-based
HPIV3 = assay: microbe, parasite or virus in culture; format: cell-based
HPIV1 = format: cell-based
in vitro [2] = format: in vitro ADME; settings: plasma
Experimental: as §1

[3] = Pharmacokinetics analysis in mice; format: in vivo
NiV L = NiV L (Nipah virus, UniProt Q997F0); assay: cell-based
CDV-Onderstepoort RdRP = CDV-Onderstepoort RdRP (Canine distemper virus, UniProt P24658); format: cell-based
HPIV2 = format: cell-based
RSV = format: cell-based
in vitro [4] = settings: African green monkey
HPIV1 isolate 5F6 = assay: organism not typed; format: cell-based
[5] = test system: different immortalized cell lines; assay: Cell proliferation / cytotoxicity in cultured immortalized cell lines; format: cell-based
[6] = molecular target: purified MeV P-L proteins (Measles virus, UniProt Q9WMB3); format: biochemical
SeV [7] = test system: SeV; parameters: species or system mice; settings: mouse, in vivo
MeV = format: cell-based
[8] = Stability in mouse liver microsomes; format: in vitro ADME
Experimental: as §1

HPIV3-infected HBTECs = format: cell-based, human
MeV-Edm RdRP = MeV-Edm RdRP (Measles virus, UniProt P12576); format: cell-based
[9] = test system: HPIV3 primary transcription; format: cell-based
[10] = test system: MeV primary transcription; format: cell-based
recHPIV3-JS-NanoLuc = assay: microbe, parasite or virus in culture; format: cell-based
influenza A viruses = format: cell-based
SeV [11] = format: cell-based
in vitro [12] = settings: human
purified MeV L (L1708) = purified MeV L (L1708) (Measles virus, UniProt Q9WMB3); assay: biochemical; format: binding
[13] = test system: clinical isolates HPIV3-9R4 and HPIV3-10L3; assay: microbe, parasite or virus in culture; format: cell-based
[14] = test system: canine distemper virus (CDV); format: cell-based
[15] = test system: clinical isolates of HPIV3; format: cell-based
[16] = test system: MeV L with resistance mutations (LS869P, LI1009F, LY1106S, LS869P/Y942H); format: binding

NC(=O)c1c(F)cccc1-c1cccc2cnccc12 [GHP-88309, 2-fluoro-6-(5-isoquinolyl)benzamide]
inhibition of viral RdRP activity (HPIV3-JS RdRP): specific inhibition | half-life ([1]; both sexes, human, pooled human liver microsomes, pH 7.5, human liver microsomes, read-out: half-life (t1/2)): > 15 h | half-life (t1/2) ([1]; human liver microsomes): 15.3 h | inhibition of viral RdRP activity (RSV-derived minigenome): not affected | pEC50 (HPIV3): 6.98 | sterilizing concentration in the basolateral chamber (HPIV3): 10 µM | pEC50 (HPIV3; Human respirovirus 3): 7.05 | inhibitory activity (HPIV1): Inhibitory activity | potency (EC50) against clinical isolates (HPIV1): low-micromolar to submicromolar | half-life (in vitro [2]; CD-1, mouse): > 15 h | half-life (in vitro [2]; human): > 15 h | effect of multi-day dosing on PK properties ([3]; 150 mg/kg oral, single vs multi dosing): did not significantly (P>0.82) alter | tolerability ([3]; 5-day multi-dose oral, b.i.d. 150 mg/kg): well tolerated; also recorded: no signs of biotoxicity | organ concentrations ([3]; all soft tissues incl. lung, 60 minutes after plasma Cmax, single oral 150 mg/kg): 70 to 246 nmol/g | concentration at 11.5 h ([3]; female, 129x1/SvJ, mouse, plasma, 150 mg/kg oral b.i.d., 4-day treatment period, read-out: drug plasma concentration at trough): ~34 µM | bioavailability ([3]; female, 129x1/SvJ, mouse, plasma, single-dose oral vs i.v.): ~90% | sustained drug plasma concentrations ([3]; single oral dose 150 mg/kg): > 30 µM | pEC50 (NiV L): 3.50 | inhibition of viral RdRP activity (CDV-Onderstepoort RdRP): specific inhibition | inhibitory activity (HPIV2): not inhibited | TEER and tight junction organization (3D-ALI-HBTEC): unchanged | inhibitory activity (RSV): not inhibited | CC50 (in vitro [4]): > 20 µM | pEC50 (HPIV1 isolate 5F6): 6.55 | effect on cell proliferation ([5]; concentration range up to 100 μM): No toxicity was detectable | cytotoxicity ([5]; multi-day incubation, up to 1 mM, infected cells highest 300 μM): no cytotoxicity | RNA elongation (3′ extension) after back-priming [6]: does not block; also recorded: did not block RNA elongation | de novo RNA synthesis (initiation at the promoter) [6]: inhibits; also recorded: dose-dependent inhibition | IFN-β induction in lung tissue (SeV [7]): significantly lower | IL12b expression in lung tissue (SeV [7]): increased | body temperature (SeV [7]): prevented hypothermia | body weight (SeV [7]): alleviated body weight losses | clinical signs (SeV [7]): significantly alleviated | expression of inflammatory markers (IL-6, TNF, Acod1) (SeV [7]): significantly decreased | humoral anti-SeV response of recoverees (SeV [7]): robust humoral anti-SeV response | lung histopathology (SeV [7]): no statistically significant (P=0.62) pathological changes | lung inflammation and cellular infiltrates (SeV [7]): alleviated | outcome of rechallenge (SeV [7]): complete survival without development of clinical signs | survival (SeV [7]): All treated animals survived; also recorded: complete protection | survival after primary infection (SeV [7]): all animals survived | virus load in lungs (SeV [7]): significantly reduced | virus load in trachea (SeV [7]): significantly reduced | inhibitory activity (MeV): Inhibitory activity | potency (EC50) against clinical isolates (MeV): low-micromolar to submicromolar | half-life ([8]; CD-1, mouse, pooled CD-1 mouse liver microsomes, pH 7.5, mouse liver microsomes, read-out: half-life (t1/2)): > 15 h | half-life (t1/2) ([8]; mouse liver microsomes): > 24 h | IFN-β levels (HPIV3-infected HBTECs): did not reduce | ISG expression (HPIV3-infected HBTECs): enhanced | inhibition of viral RdRP activity (MeV-Edm RdRP): specific inhibition | viral mRNA amounts during primary transcription [9]: dose-dependent reduction | viral mRNA amounts during primary transcription [10]: dose-dependent reduction | pEC50 (recHPIV3-JS-NanoLuc): 5.94 to 6.23 | pEC50 (recHPIV3-JS-NanoLuc; Human respirovirus 3): > 6.00 | pEC50 (recHPIV3-JS-NanoLuc; Human respirovirus 3, read-out: active concentrations against recHPIV3-JS-NanoLuc): 6.11 to 6.40 | inhibitory activity (influenza A viruses): not inhibited | inhibitory activity (SeV [11]): Inhibitory activity | CC50 (in vitro [12]): 1000 µM | pKd (purified MeV L (L1708)): 5.21 | difference between EC50 and KD concentrations (purified MeV L (L1708)): ~10 fold | pEC50 ([13]; Human respirovirus 3, HPIV3-9R4 on HBTEC cultures): 7.15 | pEC50 ([13]; Human respirovirus 3, HPIV3-10L3 on HBTEC cultures): 7.10 | inhibitory activity [14]: Inhibitory activity | potency (EC50) against clinical isolates [15]: low-micromolar to submicromolar | binding [16]: drastically reduced
